The NIST ThermoML archive (doi:10.1016/j.jct.2007.04.005)

Experiment: xn = mol fraction of the nth substance listed
Settings: 308.15 K, Liquid

CCCCCCCCC [nonane] + C1CCCCC1
Settings	mass density [kg/m3]
100 kPa, x2 = 0	705.8
100 kPa, x2 = 0.09303	708.8
100 kPa, x2 = 0.2009	712.6
100 kPa, x2 = 0.3051	716.8
100 kPa, x2 = 0.417	721.7
100 kPa, x2 = 0.512	726.3
100 kPa, x2 = 0.5996	731.2
100 kPa, x2 = 0.7052	737.9
100 kPa, x2 = 0.7993	745
100 kPa, x2 = 0.9039	754
101 kPa, x2 = 0	706.11
101 kPa, x2 = 0.1022	709.37
101 kPa, x2 = 0.1548	711.18
101 kPa, x2 = 0.2009	712.84
101 kPa, x2 = 0.2591	715.05
101 kPa, x2 = 0.3306	717.98
101 kPa, x2 = 0.4003	721.05
101 kPa, x2 = 0.4596	723.89
101 kPa, x2 = 0.5321	727.62
101 kPa, x2 = 0.612	732.19
101 kPa, x2 = 0.6649	735.49
101 kPa, x2 = 0.7224	739.39
101 kPa, x2 = 0.8047	745.58
101 kPa, x2 = 0.8686	751
101 kPa, x2 = 0.9405	757.89
2130 kPa, x2 = 0	707.5
2130 kPa, x2 = 0.09303	710.5
2130 kPa, x2 = 0.2009	714.3
2130 kPa, x2 = 0.3051	718.5
2130 kPa, x2 = 0.417	723.4
2130 kPa, x2 = 0.512	728
2130 kPa, x2 = 0.5996	733
2130 kPa, x2 = 0.7052	739.7
2130 kPa, x2 = 0.7993	746.8
2130 kPa, x2 = 0.9039	755.7
4150 kPa, x2 = 0	709.2
4150 kPa, x2 = 0.09303	712.2
4150 kPa, x2 = 0.2009	716
4150 kPa, x2 = 0.3051	720.2
4150 kPa, x2 = 0.417	725.1
4150 kPa, x2 = 0.512	729.7
4150 kPa, x2 = 0.5996	734.7
4150 kPa, x2 = 0.7052	741.5
4150 kPa, x2 = 0.7993	748.5
4150 kPa, x2 = 0.9039	757.5
6180 kPa, x2 = 0	710.9
6180 kPa, x2 = 0.09303	713.9
6180 kPa, x2 = 0.2009	717.7
6180 kPa, x2 = 0.3051	721.9
6180 kPa, x2 = 0.417	726.8
6180 kPa, x2 = 0.512	731.4
6180 kPa, x2 = 0.5996	736.4
6180 kPa, x2 = 0.7052	743.2
6180 kPa, x2 = 0.7993	750.3
6180 kPa, x2 = 0.9039	759.3
8210 kPa, x2 = 0	712.5
8210 kPa, x2 = 0.09303	715.5
8210 kPa, x2 = 0.2009	719.4
8210 kPa, x2 = 0.3051	723.6
8210 kPa, x2 = 0.417	728.5
8210 kPa, x2 = 0.512	733.1
8210 kPa, x2 = 0.5996	738.1
8210 kPa, x2 = 0.7052	744.9
8210 kPa, x2 = 0.7993	752
8210 kPa, x2 = 0.9039	761
10230 kPa, x2 = 0	714.1
10230 kPa, x2 = 0.09303	717.1
10230 kPa, x2 = 0.2009	721
10230 kPa, x2 = 0.3051	725.2
10230 kPa, x2 = 0.417	730.1
10230 kPa, x2 = 0.512	734.7
10230 kPa, x2 = 0.5996	739.8
10230 kPa, x2 = 0.7052	746.6
10230 kPa, x2 = 0.7993	753.6
10230 kPa, x2 = 0.9039	762.7
11250 kPa, x2 = 0	714.9
11250 kPa, x2 = 0.09303	717.9
11250 kPa, x2 = 0.2009	721.8
11250 kPa, x2 = 0.3051	726
11250 kPa, x2 = 0.417	730.9
11250 kPa, x2 = 0.512	735.5
11250 kPa, x2 = 0.5996	740.6
11250 kPa, x2 = 0.7052	747.4
11250 kPa, x2 = 0.7993	754.4
11250 kPa, x2 = 0.9039	763.5
12260 kPa, x2 = 0	715.7
12260 kPa, x2 = 0.09303	718.7
12260 kPa, x2 = 0.2009	722.6
12260 kPa, x2 = 0.3051	726.8
12260 kPa, x2 = 0.417	731.7
12260 kPa, x2 = 0.512	736.3
12260 kPa, x2 = 0.5996	741.4
12260 kPa, x2 = 0.7052	748.2
12260 kPa, x2 = 0.7993	755.3
12260 kPa, x2 = 0.9039	764.4
14290 kPa, x2 = 0	717.2
14290 kPa, x2 = 0.09303	720.3
14290 kPa, x2 = 0.2009	724.2
14290 kPa, x2 = 0.3051	728.3
14290 kPa, x2 = 0.417	733.3
14290 kPa, x2 = 0.512	737.9
14290 kPa, x2 = 0.5996	743
14290 kPa, x2 = 0.7052	749.8
14290 kPa, x2 = 0.7993	756.9
14290 kPa, x2 = 0.9039	766
16310 kPa, x2 = 0	718.7
16310 kPa, x2 = 0.09303	721.8
16310 kPa, x2 = 0.2009	725.7
16310 kPa, x2 = 0.3051	729.9
16310 kPa, x2 = 0.417	734.8
16310 kPa, x2 = 0.512	739.4
16310 kPa, x2 = 0.5996	744.5
16310 kPa, x2 = 0.7052	751.4
16310 kPa, x2 = 0.7993	758.4
16310 kPa, x2 = 0.9039	767.5
18340 kPa, x2 = 0	720.2
18340 kPa, x2 = 0.09303	723.2
18340 kPa, x2 = 0.2009	727.2
18340 kPa, x2 = 0.3051	731.4
18340 kPa, x2 = 0.417	736.3
18340 kPa, x2 = 0.512	740.9
18340 kPa, x2 = 0.5996	746.1
